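Five concentrations, 48 hours, 96-well plates. Here, GI50 denotes the concentration required for 50% inhibition of growth.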 Active and inactive are the calls of the source. No stated cut-off is given here; in the data, active = GI50 up to about 1.1 µM and inactive = higher.
Tests used:
Test in all cases: NCI-60 cell line screen, 48 h
[1] = tested on: 786-0
[2] = tested on: A498
[3] = tested on: A549
[4] = tested on: ACHN
[5] = tested on: BT-549
[6] = tested on: CAKI-1
[7] = tested on: CCRF-CEM
[8] = tested on: COLO 205
[9] = tested on: DU-145
[10] = tested on: EKVX
[11] = tested on: HCC 2998
[12] = tested on: HCT-116
[13] = tested on: HCT-15
[14] = tested on: HL-60
[15] = tested on: HOP-62
[16] = tested on: HOP-92
[17] = tested on: HT-29
[18] = tested on: Hs-578T
[19] = tested on: IGROV-1
[20] = tested on: K562
[21] = tested on: KM12
[22] = tested on: LOX IMVI
[23] = tested on: M14
[24] = tested on: MDA-MB-231
[25] = tested on: MDA-MB-435
[26] = tested on: MOLT-4
[27] = tested on: Malme-3M
[28] = tested on: NCI-H226
[29] = tested on: NCI-H23
[30] = tested on: NCI-H522
[31] = tested on: NCI/ADR-RES
[32] = tested on: OVCAR-3
[33] = tested on: OVCAR-4
[34] = tested on: OVCAR-5
[35] = tested on: OVCAR-8
[36] = tested on: PC-3
[37] = tested on: RPMI-8226
[38] = tested on: RXF 393
[39] = tested on: SF-268
[40] = tested on: SF-295
[41] = tested on: SF-539
[42] = tested on: SK-MEL-28
[43] = tested on: SK-MEL-2
[44] = tested on: SK-MEL-5
[45] = tested on: SK-OV-3
[46] = tested on: SN12C
[47] = tested on: SNB-19
[48] = tested on: SNB-75
[49] = tested on: SR
[50] = tested on: SW-620
[51] = tested on: TK-10
[52] = tested on: U-251
[53] = tested on: UACC-257
[54] = tested on: UACC-62
[55] = tested on: UO-31

Cc1[nH]nc(C(=O)N/N=C/c2ccccc2Cl)c1/N=N\N(C)C
GI50 [1]: 5.04 µM (inactive)
GI50 [2]: 2.19 µM (inactive)
GI50 [3]: > 100 µM (inactive)
GI50 [4]: > 54.6 µM (inactive)
GI50 [5]: 2.99 µM (inactive)
GI50 [6]: > 32.9 µM (inactive)
GI50 [7]: 2.59 µM (inactive)
GI50 [8]: > 100 µM (inactive)
GI50 [9]: 4.28 µM (inactive)
GI50 [10]: 12.4 µM (inactive)
GI50 [11]: > 100 µM (inactive)
GI50 [12]: 4.05 µM (inactive)
GI50 [13]: > 100 µM
GI50 [14]: 4.82 µM (inactive)
GI50 [15]: 1.34 µM (inactive)
GI50 [16]: > 23.9 µM (inactive)
GI50 [17]: > 53.3 µM (inactive)
GI50 [18]: 2.09 µM (inactive)
GI50 [19]: 40.8 µM (inactive)
GI50 [20]: 0.802 µM (active)
GI50 [21]: 2.86 µM (inactive)
GI50 [22]: > 76.4 µM (inactive)
GI50 [23]: > 100 µM (inactive)
GI50 [24]: > 43.5 µM (inactive)
GI50 [25]: > 100 µM (inactive)
GI50 [26]: 2.2 µM (inactive)
GI50 [27]: > 39.4 µM (inactive)
GI50 [28]: > 100 µM (inactive)
GI50 [29]: > 25.6 µM (inactive)
GI50 [30]: > 61.4 µM (inactive)
GI50 [31]: 6.1 µM (inactive)
GI50 [32]: 20.8 µM (inactive)
GI50 [33]: 14.9 µM (inactive)
GI50 [34]: 18 µM (inactive)
GI50 [35]: 7.98 µM (inactive)
GI50 [36]: 5.7 µM (inactive)
GI50 [37]: 2.51 µM (inactive)
GI50 [38]: > 37.9 µM (inactive)
GI50 [39]: > 100 µM (inactive)
GI50 [40]: > 54 µM (inactive)
GI50 [41]: 5.56 µM (inactive)
GI50 [42]: > 100 µM (inactive)
GI50 [43]: > 100 µM (inactive)
GI50 [44]: 14.6 µM (inactive)
GI50 [45]: > 100 µM (inactive)
GI50 [46]: > 54.3 µM (inactive)
GI50 [47]: > 100 µM (inactive)
GI50 [48]: > 31 µM (inactive)
GI50 [49]: 0.171 µM (active)
GI50 [50]: > 33 µM (inactive)
GI50 [51]: 56.6 µM (inactive)
GI50 [52]: 14.8 µM (inactive)
GI50 [53]: > 84.7 µM (inactive)
GI50 [54]: > 100 µM (inactive)
GI50 [55]: > 57.8 µM (inactive)

Source: ChEMBL document CHEMBL1201862, “PubChem BioAssay data set” (2004)
